Reference: patent US7618623B2, “Hybrid adeno-retroviral vector for the transfection of cells” (priority 2000, dated 2009)
Read-outs that look alike come from different tables or passages of the source.

How the values were obtained:
HSG cells [1] = test: Cell death on fibronectin-coated poly-L-lactic acid disks (crystal violet staining, cell count); assay type: cell-based, human; details: for cell death: cells infected with AdLTR.CMV-tk (MOI of 10)
Description: Two-dimensional films of poly-L-lactic acid (Boehringer Ingelheim Inc., Winchester, Va.) were produced by melt processing polymer pellets between sheets of aluminum foil using a Carver press at 350° F. to create disks with diameters of 20-25 mm. The disks were sterilized using y-irradiation for ˜150 min with a dose of 20,000 Gy.
Disks were gently placed in each well of a 6-well tissue culture plate (Becton Dickinson, Franklin Lakes, N.J.) and immersed in phosphate-buffered saline (PBS; GibcoBRL, Grand Island, N.Y.) for 18 hours with 5 μg/ml fibronectin at 37° C. (Aframian et al., Tissue Engin. 6:209, 2000). Thereafter, the coated disks were blocked for 1 hr with bovine serum albumin (Calbiochem-Novabiochem Corp., La Jolla, Calif.) at 37° C. and then gently washed twice with PBS (Aframian et al., op. cit.). Cell suspensions (1×10^5 cells; 2 ml/well) were added in complete culture medium and incubated at 37° C. for an additional 18 hours. Thereafter, the medium was discarded, and 10 MOI of virus diluted in PBS was added for an additional 6 hr. Next, GCV diluted in medium was added, and after an additional 125 hr the disks were washed twice in PBS, then stained with 0.2% crystal violet in 20% ethanol for 20 min (Aframian et al., op. cit). The disks were then rinsed twice with PBS and examined under a light microscope using a 10× objective. Three randomly selected photomicrographs were obtained from each specimen using 200 ASA color slide film (Elite chrome, Kodak, Rochester, N.Y.). The slides were scanned to convert them to digital images and, using Adobe Photoshop®, three 200 μm^2 regions were randomly chosen from each field, and cell number was determined visually.
An artificial salivary gland device will have cells grown as a monolayer on a fibronectin-coated poly-L-lactic acid substratum (Aframian et al., Tissue Engin. 6:209, 2000), rather than on tissue culture plastic. Therefore, the ability of GCV to elicit HSG cell death when the cells were attached to poly-L-lactic acid disks pre-coated with 5 μg/ml of human fibronectin was determined. […] The GCV effect ranged from 40% cell death at 0.5 μM GCV to 95% cell death when the GCV concentration was 50 μM.

HSG cells [2] = test: Trypan blue staining and manual cell counting on plastic; assay type: cell-based, human; details: cells infected with AdLTR.CMV-tk at a MOI of 10; 0.5, 5, 50 μM GCV
From the text: HSG cells were a generous gift from […].
To determine the surviving cell number under these growth conditions on a plastic substrate following GCV treatment, in separate experiments trypan blue staining was used as well as manual cell counting.

HSG cells [3] = tested on: HSG cells
From the text: HSG cells were a generous gift from […]. M. Sato (Tokushima University, Japan) (Shirasuna et al., Cancer 48:745, 1981) and were maintained in vitro as previously described (He et al., Pflugers Arch., 36:416, 1990). For the experiments presented herein, HSG cells were dispersed from semi-confluent plates using a solution of Versene 1:5000 in Hanks' balanced salt solution without calcium and magnesium (BioFluids, Rockville Md.). Cells were then resuspended in fresh media consisting of a 1:1 mixture of Eagle's Minimal Essential Medium, (Dulbecco's Modification) and Ham's F-12 supplemented with 2 mM glutamine (BioFluids), 10% fetal calf serum (Hyclone, Logan, Utah), and 100 units/ml penicillin, 100 μg/ml streptomycin and 2.5 μg/ml fungizone (BioFluids).
Cells were grown in 96-well culture plates at a density of 1×10^4 cells/well. […] Six hours after infection, GCV (Cytovene®, Syntex Laboratories, Inc., Palo Alto Calif.) was added to the media at concentrations of 0.5, 5, or 50 μM. After incubation for different time points, the sensitivity of cells to the GCV prodrug was evaluated using two separate methods, assaying either with the tetrazolium salt of 3-(4,5-dimethylthiazol-2-yl)-2,5-diphenyl […] bromide (MTT assay, Chemicon International Inc., Temecula, Calif.) or direct cell counting after trypan blue staining (Bio-Whittaker, Walkersville, Md.).
To assess the ability of the HSV-tk transgene to function in HSG cells, cell viability was studied on tissue culture plastic using the MTT assay. HSG cells were infected with different vector MOIs, and thereafter incubated with several concentrations of GCV (Candotti et al., Cancer Gene Ther., 7:574, 2000).

## Nc1nc(O)c2ncn(COC(CO)CO)c2n1 [GCV, ganciclovir]
HSG cells [1]; 50 μM GCV alone, no infection
  appearance of cell monolayers: appeared normal
HSG cells [1]; AdLTR.CMV-tk at a MOI of 10 followed by 50 μM of GCV
  cells remaining on the disk: loss of almost all of the cells
HSG cells [1]; 0.5 μM GCV
  cell death: 40%
HSG cells [1]; 50 μM GCV
  cell death: 95%
HSG cells [2]
  decrease in number of viable cells compared with cells infected with 10 MOI alone: up to 3 fold
HSG cells [3]; GCV doses up to 50 μM, absence of AdLTR.CMV-tk infection
  effect on HSG cell growth and viability: does not affect
HSG cells [3]; cells infected with AdLTR.CMV-tk at a MOI of 1
  effect of GCV on viability: without effect
HSG cells [3]; cells infected with AdLTR.CMV-tk at a MOI of 10, all prodrug concentrations (0.5, 5, 50 μM)
  reduced viability compared to no GCV treatment: > 50%
HSG cells [3]; uninfected cells, 0.5, 5, 50 μM GCV
  effect of GCV on viability: without effect
